Columns and labels:
[1] = molecular target: Macrophage colony-stimulating factor 1 receptor (Homo sapiens, UniProt P07333); experiment: Displacement of kinase tracer 236 from recombinant human His-tagged CSF1R cytoplasmic domain (538 to 910 residues) expressed in baculovirus-infected insect cells measured after 5 hrs by TR-FRET based LanthaScreen assay
[2] = molecular target: Vascular endothelial growth factor receptor 2 (Homo sapiens, UniProt P35968); experiment: Displacement of kinase tracer 236 from recombinant human His-tagged KDR cytoplasmic domain (789 to 1356 residues) expressed in baculovirus-infected insect cells measured after 5 hrs by TR-FRET based LanthaScreen assay
Vascular endothelial growth factor receptor 2, sequence (P35968 whole entry, the tested form may be a part): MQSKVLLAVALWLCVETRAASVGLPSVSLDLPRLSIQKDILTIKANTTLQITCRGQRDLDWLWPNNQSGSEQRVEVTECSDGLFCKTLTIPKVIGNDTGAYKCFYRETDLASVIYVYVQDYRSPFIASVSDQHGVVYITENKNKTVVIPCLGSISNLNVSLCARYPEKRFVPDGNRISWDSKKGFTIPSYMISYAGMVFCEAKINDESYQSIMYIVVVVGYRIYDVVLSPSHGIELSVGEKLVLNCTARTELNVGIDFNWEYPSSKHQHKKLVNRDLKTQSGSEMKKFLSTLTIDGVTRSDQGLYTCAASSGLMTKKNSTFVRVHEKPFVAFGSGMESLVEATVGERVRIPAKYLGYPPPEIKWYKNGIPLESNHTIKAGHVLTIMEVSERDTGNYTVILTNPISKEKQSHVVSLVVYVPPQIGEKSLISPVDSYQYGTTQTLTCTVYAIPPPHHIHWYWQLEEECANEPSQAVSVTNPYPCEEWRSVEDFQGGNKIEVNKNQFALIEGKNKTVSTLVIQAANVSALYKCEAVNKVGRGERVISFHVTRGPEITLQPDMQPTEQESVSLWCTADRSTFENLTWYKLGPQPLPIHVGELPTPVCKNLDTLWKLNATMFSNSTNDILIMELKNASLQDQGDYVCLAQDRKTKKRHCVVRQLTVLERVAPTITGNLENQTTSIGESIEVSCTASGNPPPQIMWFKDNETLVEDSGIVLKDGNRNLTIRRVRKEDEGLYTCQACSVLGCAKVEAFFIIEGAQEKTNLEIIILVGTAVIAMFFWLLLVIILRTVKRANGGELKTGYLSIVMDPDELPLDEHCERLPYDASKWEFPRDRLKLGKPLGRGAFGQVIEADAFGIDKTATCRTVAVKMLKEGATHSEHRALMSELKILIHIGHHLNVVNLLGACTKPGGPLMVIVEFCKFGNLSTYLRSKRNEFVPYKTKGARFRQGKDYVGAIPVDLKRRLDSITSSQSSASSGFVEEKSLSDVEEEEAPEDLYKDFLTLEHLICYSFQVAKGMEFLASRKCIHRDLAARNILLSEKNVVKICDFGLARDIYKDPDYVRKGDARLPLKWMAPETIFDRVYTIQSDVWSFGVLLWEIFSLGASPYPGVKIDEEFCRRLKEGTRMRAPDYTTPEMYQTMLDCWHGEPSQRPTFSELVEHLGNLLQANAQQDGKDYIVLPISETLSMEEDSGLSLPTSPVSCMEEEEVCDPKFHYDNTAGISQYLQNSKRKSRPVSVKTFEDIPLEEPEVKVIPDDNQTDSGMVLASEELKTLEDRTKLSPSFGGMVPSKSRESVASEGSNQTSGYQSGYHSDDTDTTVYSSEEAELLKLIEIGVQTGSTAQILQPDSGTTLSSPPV

Macrophage colony-stimulating factor 1 receptor, sequence (P07333 whole entry, the tested form may be a part): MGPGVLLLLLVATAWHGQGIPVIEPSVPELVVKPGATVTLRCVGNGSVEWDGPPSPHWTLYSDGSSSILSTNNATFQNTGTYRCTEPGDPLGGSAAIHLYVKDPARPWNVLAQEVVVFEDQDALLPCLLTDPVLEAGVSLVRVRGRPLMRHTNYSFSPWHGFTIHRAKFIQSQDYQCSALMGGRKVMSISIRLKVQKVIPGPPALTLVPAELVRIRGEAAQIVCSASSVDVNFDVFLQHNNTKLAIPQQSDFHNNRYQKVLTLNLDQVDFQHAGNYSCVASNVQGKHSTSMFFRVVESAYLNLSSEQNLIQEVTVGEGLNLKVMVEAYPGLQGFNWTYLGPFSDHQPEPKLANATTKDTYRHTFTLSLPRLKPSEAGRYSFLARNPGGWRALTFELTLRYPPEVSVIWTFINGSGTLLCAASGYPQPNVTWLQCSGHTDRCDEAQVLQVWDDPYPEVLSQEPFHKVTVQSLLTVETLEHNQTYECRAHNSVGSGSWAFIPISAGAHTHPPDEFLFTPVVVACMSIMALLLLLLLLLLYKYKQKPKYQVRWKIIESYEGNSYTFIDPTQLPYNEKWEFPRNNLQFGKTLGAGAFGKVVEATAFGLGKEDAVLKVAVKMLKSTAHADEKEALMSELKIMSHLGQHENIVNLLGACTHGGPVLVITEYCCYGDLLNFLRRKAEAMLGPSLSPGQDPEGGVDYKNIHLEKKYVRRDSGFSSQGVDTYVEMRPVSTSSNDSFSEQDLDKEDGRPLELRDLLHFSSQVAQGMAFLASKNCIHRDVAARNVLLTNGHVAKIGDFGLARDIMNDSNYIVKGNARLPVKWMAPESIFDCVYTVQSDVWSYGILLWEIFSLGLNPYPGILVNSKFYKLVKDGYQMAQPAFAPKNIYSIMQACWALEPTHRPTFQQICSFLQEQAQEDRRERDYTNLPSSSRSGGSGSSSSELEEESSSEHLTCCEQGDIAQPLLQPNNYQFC

IC50 [1]	IC50 [2]	SMILES
< 10 nM	> 200 nM	Nc1ncnc2c3c(n(-c4ccc(NC(=O)Cc5ccc6c(c5)CCN6CC(F)(F)F)cc4)c12)CCC3
< 10 nM	> 200 nM	COc1ccc(CC(=O)Nc2ccc(-n3c4c(c5ncnc(N)c53)CCC4)cc2)cc1
> 200 nM	> 200 nM	COc1cc(CC(=O)Nc2ccc(-n3c4c(c5ncnc(N)c53)CCC4)cc2)cc(OC)c1
4 nM	> 200 nM	Cn1ccc2cc(CC(=O)Nc3ccc(-n4c5c(c6ncnc(N)c64)CCC5)cc3)ccc21
< 10 nM	> 200 nM	Cc1ccc(F)c(CC(=O)Nc2ccc(-n3c4c(c5ncnc(N)c53)CCC4)cc2)c1
< 10 nM	> 200 nM	COc1cc(-n2c3c(c4ncnc(N)c42)CCC3)ccc1CC(=O)Nc1ccc(OC(F)(F)F)cc1
< 10 nM	> 200 nM	COc1cc(CC(=O)Nc2ccc(-n3c4c(c5ncnc(N)c53)CCC4)cc2)ccc1C
< 10 nM	> 200 nM	COc1ccc(CC(=O)Nc2ccc(-n3c4c(c5ncnc(N)c53)CCC4)cc2)cn1
< 10 nM	10 to 200 nM	Nc1ncnc2c3c(n(-c4ccc(CC(=O)Nc5cc(C(F)(F)F)ccc5F)cc4)c12)CCC3
< 10 nM	> 200 nM	COc1ccc(CC(=O)Nc2ccc(-n3c4c(c5ncnc(N)c53)CCC4)cc2)cc1F
10 to 200 nM	> 200 nM	Nc1ncnc2c3c(n(-c4ccc(CC(=O)Nc5ccc(C(F)(F)F)cn5)cc4)c12)COC3
10 to 200 nM	> 200 nM	Nc1ncnc2c3c(n(-c4ccc(NC(=O)Cc5cccc(OC(F)F)c5)cc4)c12)CCC3
< 10 nM	> 200 nM	COc1ccc(CC(=O)Nc2ccc(-n3c4c(c5ncnc(N)c53)CCC4)cc2)c(OC)c1
< 10 nM	> 200 nM	Nc1ncnc2c3c(n(-c4ccc(NC(=O)Cc5cc(C(F)(F)F)ccc5F)cc4)c12)CCC3
< 10 nM	> 200 nM	COc1ccc(CC(=O)Nc2ccc(-n3c4c(c5ncnc(N)c53)CCC4)cc2)cc1C
< 10 nM	> 200 nM	COc1cc(-n2c3c(c4ncnc(N)c42)CCC3)ccc1NC(=O)Cc1ccc(OC(F)(F)F)cc1
< 10 nM	> 200 nM	Nc1ncnc2c3c(n(-c4ccc(NC(=O)Cc5ccc6c(c5)CCC6)cc4)c12)CCC3
10 to 200 nM	> 200 nM	Nc1ncnc2c3c(n(-c4ccc(CC(=O)Nc5ccccc5)cc4)c12)CCC3
6 nM	> 200 nM	COc1cc(-n2c3c(c4ncnc(N)c42)COC3)ccc1NC(=O)Cc1ccc(OC(F)(F)F)cc1
< 10 nM	> 200 nM	Nc1ncnc2c3c(n(-c4ccc(NC(=O)Cc5ccc(F)cc5C(F)(F)F)cc4)c12)CCC3
10 to 200 nM	> 200 nM	Nc1ncnc2c3c(n(-c4ccc(NC(=O)Cc5cc(C(F)(F)F)ccn5)cc4)c12)CCC3
10 to 200 nM	> 200 nM	COc1ccc(CC(=O)Nc2ccc(-n3c4c(c5ncnc(N)c53)CCC4)cc2)nc1

IC50 [1]	IC50 [2]	SMILES
> 200 nM	> 200 nM	Nc1ncnc2c3c(n(-c4ccc(NC(=O)Cc5ccccc5)c(F)c4)c12)COC3
< 10 nM	> 200 nM	Nc1ncnc2c3c(n(-c4ccc(CC(=O)Nc5ccc(C(F)(F)F)c(Cl)c5)cc4)c12)CCC3
< 10 nM	> 200 nM	COc1ccc(NC(=O)Cc2ccc(-n3c4c(c5ncnc(N)c53)CCC4)cc2)cc1F
< 10 nM	> 200 nM	Nc1ncnc2c3c(n(-c4ccc(NC(=O)Cc5cccc(Cl)c5F)cc4)c12)CCC3
< 10 nM	> 200 nM	Nc1ncnc2c3c(n(-c4ccc(CC(=O)Nc5ccc(Cl)c(C(F)(F)F)c5)cc4)c12)COC3
< 10 nM	> 200 nM	COc1ccc(CC(=O)Nc2ccc(-n3c4c(c5ncnc(N)c53)COC4)cc2)cc1C(F)(F)F
10 to 200 nM	> 200 nM	Nc1ncnc2c3c(n(-c4ccc(CC(=O)Nc5ccc(OC(F)(F)F)cc5)cc4)c12)COC3
< 10 nM	> 200 nM	COc1ccc(CC(=O)Nc2ccc(-n3c4c(c5ncnc(N)c53)CCC4)cc2)c(F)c1
10 to 200 nM	10 to 200 nM	Nc1ncnc2c3c(n(-c4ccc(CC(=O)Nc5ccnc(C(F)(F)F)c5)cc4)c12)CCC3
< 10 nM	> 200 nM	Nc1ncnc2c3c(n(-c4ccc(NC(=O)Cc5ccc(Cl)c(Cl)c5)cc4)c12)CCC3
–	> 200 nM	Nc1ncnc2c3c(n(-c4ccc(NC(=O)Cc5ccc(OC(F)(F)F)cc5)cc4)c12)CCC3
> 200 nM	–	Nc1ncnc2c3c(n(-c4ccc(NC(=O)Cc5ccccc5)c(OC(F)(F)F)c4)c12)CCC3
10 to 200 nM	–	COc1cc(-n2c3c(c4ncnc(N)c42)COC3)ccc1NC(=O)Cc1cc(C(F)(F)F)ccc1F
< 10 nM	–	COc1cc(-n2c3c(c4ncnc(N)c42)COC3)ccc1NC(=O)Cc1ccc(Cl)c(C(F)(F)F)c1
> 200 nM	–	COc1cc(-n2c3c(c4ncnc(N)c42)COC3)ccc1CC(=O)Nc1ccccc1
10 to 200 nM	–	Nc1ncnc2c3c(n(-c4ccc(CC(=O)Nc5cnc(C(F)(F)F)nc5)cc4)c12)CCC3
< 10 nM	–	COc1cc(-n2c3c(c4ncnc(N)c42)COC3)ccc1CC(=O)Nc1ccc(C(F)(F)F)nc1
14 nM	–	Nc1ncnc2c3c(n(-c4ccc(NC(=O)Cc5ccc(Cl)c(C(F)(F)F)c5)cc4)c12)CCC3
–	> 200 nM	Nc1ncnc2c3c(n(-c4ccc(NC(=O)Cc5cccc(O)c5)cc4)c12)CCC3
10 to 200 nM	–	Cc1ccc(CC(=O)Nc2ccc(-n3c4c(c5ncnc(N)c53)COC4)cc2)cc1F
> 200 nM	–	Nc1ncnc2c3c(n(-c4ccc(NC(=O)Cc5ccccc5)c(C(F)(F)F)c4)c12)CCC3
< 10 nM	–	COc1cc(-n2c3c(c4ncnc(N)c42)COC3)ccc1NC(=O)Cc1ccc(OC)c(C(F)(F)F)c1

Second part, the compound before the results:

SMILES	IC50 [1]	IC50 [2]
Nc1ncnc2c3c(n(-c4ccc(NC(=O)CC5CCNCC5)cc4)c12)CCC3	> 200 nM	> 200 nM
Cc1cc(CC(=O)Nc2ccc(-n3c4c(c5ncnc(N)c53)CCC4)cc2)on1	10 to 200 nM	> 200 nM
COc1cc(-n2c3c(c4ncnc(N)c42)CCC3)ccc1CC(=O)Nc1ccnc(C(F)(F)F)c1	< 10 nM	> 200 nM
Nc1ncnc2c3c(n(-c4ccc(NC(=O)Cc5nc6ccccc6s5)cc4)c12)CCC3	10 to 200 nM	> 200 nM
COc1cc(-n2c3c(c4ncnc(N)c42)CCC3)ccc1CC(=O)Nc1cc(C(F)(F)F)ccc1F	< 10 nM	> 200 nM
COc1cc(-n2c3c(c4ncnc(N)c42)CCC3)ccc1CC(=O)Nc1ccc(OC)c(C(F)(F)F)c1	< 10 nM	> 200 nM
COc1ccc(NC(=O)Cc2ccc(-n3c4c(c5ncnc(N)c53)CCC4)cc2OC)cc1F	< 10 nM	> 200 nM
COc1cc(-n2c3c(c4ncnc(N)c42)CCC3)ccc1NC(=O)Cc1cc(C)ccc1F	< 10 nM	> 200 nM
COc1ccc(CC(=O)Nc2ccc(-n3c4c(c5ncnc(N)c53)CCC4)cc2OC)c(F)c1	< 10 nM	> 200 nM
Nc1ncnc2c3c(n(-c4ccc(NC(=O)Cc5ccccc5)cc4F)c12)CCC3	47 nM	> 200 nM
COc1cc(-n2c3c(c4ncnc(N)c42)CCC3)ccc1CC(=O)Nc1ccc(Cl)c(C(F)(F)F)c1	< 10 nM	> 200 nM
COc1cc(-n2c3c(c4ncnc(N)c42)CCC3)ccc1NC(=O)Cc1ccc2c(c1)CCN2CC(F)(F)F	< 10 nM	> 200 nM
CC(C(=O)Nc1ccc(-n2c3c(c4ncnc(N)c42)CCC3)cc1)c1ccccc1 (stereo not given)	10 to 200 nM	> 200 nM
COc1cc(-n2c3c(c4ncnc(N)c42)CCC3)ccc1NC(=O)Cc1ccc(OC)c(C(F)(F)F)c1	10 to 200 nM	> 200 nM
COc1cc(-n2c3c(c4ncnc(N)c42)CCC3)ccc1CC(=O)Nc1cc(C)ccc1F	< 10 nM	–
COc1cc(-n2c3c(c4ncnc(N)c42)CCC3)ccc1NC(=O)Cc1ccc(Cl)c(C(F)(F)F)c1	10 to 200 nM	–
COc1cc(-n2c3c(c4ncnc(N)c42)CCC3)ccc1NC(=O)Cc1ccccn1	< 10 nM	–
COc1cc(-n2c3c(c4ncnc(N)c42)COC3)ccc1NC(=O)Cn1nc(C)cc1C(F)(F)F	> 200 nM	–

SMILES	IC50 [1]	IC50 [2]
Nc1ncnc2c3c(n(-c4ccc(NC(=O)Cn5ccnc5)cc4)c12)CCC3	> 200 nM	–
COc1cc(-n2c3c(c4ncnc(N)c42)CCC3)ccc1NC(=O)CN1CCOc2ccccc21	10 to 200 nM	–
COc1cc(-n2c3c(c4ncnc(N)c42)CCC3)ccc1CC(=O)Nc1nc(C(F)(F)F)cs1	< 10 nM	–
COc1cc(CC(=O)Nc2ccc(-n3c4c(c5ncnc(N)c53)CCC4)cc2OC)ccc1C	< 10 nM	–
COc1cc(-n2c3c(c4ncnc(N)c42)CCC3)ccc1NC(=O)Cc1csc(C(C)C)n1	< 10 nM	–
Nc1ncnc2c3c(n(-c4ccc(NC(=O)C(F)c5ccccc5)cc4)c12)CCC3 (stereo not given)	> 200 nM	–
COc1cc(-n2c3c(c4ncnc(N)c42)COC3)ccc1NC(=O)CN1CCOc2ccccc21	> 200 nM	–
Nc1ncnc2c3c(n(-c4ccc(NC(=O)Cc5ccccc5)nc4)c12)CCC3	> 200 nM	–
COc1cc(-n2c3c(c4ncnc(N)c42)CCC3)ccc1NC(=O)Cc1ncc(C)cc1F	10 to 200 nM	–
COc1ccc(CC(=O)Nc2ccc(-n3c4c(c5ncnc(N)c53)CCC4)cc2OC)cn1	10 to 200 nM	–
COc1ccc(NC(=O)Cc2ccc(-n3c4c(c5ncnc(N)c53)CCC4)cc2OC)c(F)c1	< 10 nM	–
COc1cc(-n2c3c(c4ncnc(N)c42)CCC3)ccc1NC(=O)Cc1cnccn1	> 200 nM	–
Nc1ncnc2c3c(n(-c4ccc(NC(=O)Cn5ccc(C6CC6)n5)cc4)c12)CCC3	< 10 nM	–
COc1cc(-n2c3c(c4ncnc(N)c42)CCC3)ccc1NC(=O)Cc1cc(C(F)(F)F)ccc1F	10 to 200 nM	–
COc1cc(-n2c3c(c4ncnc(N)c42)CCC3)ccc1CC(=O)Nc1cnc(C(F)(F)F)nc1	10 to 200 nM	–
COc1cc(-n2c3c(c4ncnc(N)c42)CCC3)ccc1NC(=O)Cn1ccc(C(F)(F)F)n1	< 10 nM	–
COc1cc(-n2c3c(c4ncnc(N)c42)COC3)ccc1NC(=O)Cc1cccc(OC)c1C	< 10 nM	–
